According to US11384113B2, “Cobalamin derivatives and their use for the treatment of diseases caused by lack of vitamin B12 supply” (Albert-Ludwigs-Universitaet Freiburg, priority 2017, dated 2022):
Changes are numbered by the printed parent chain. Where two headings read alike, the source gives them in different places.

Key:
[1] = pH 7.72, l = 0.5, KNO3; cited from earlier work
[2] = Concentration-dependent reaction rate of aquacobalamin with thiol ligand forming thiolatocobalamin (time-resolved UV-visible spectroscopy); assay type: physicochemical; conditions: pH 7.2, l = 1, sodium triflate
Experimental: The UV-visible spectra of newly synthesized cobalamin derivatives was determined in EPPS buffer (40 mM, pH 7.6, l=1.0 M with sodium triflate). The reaction of aquacobalamin with cysteamine and mercaptopropionylglycine was monitored by time-resolved spectral scanning of reactions containing a fixed amount of aquacobalamin (10-25 μM (micromolar)) and various concentrations of the ligand.
Mercaptopropionylglycine reacted readily with aquacobalamin to form a stable MPGCbl complex at pH 7.2.
A fixed concentration of aquacobalamin was reacted with varying concentrations of the ligand MPG. The reaction was monitored by time-resolved UV-visible spectroscopy for a total of 50 minutes (FIG. 5). The spectral changes were consistent with the conversion of aquacobalamin into MPGCbl (FIG. 5 a) via a mechanism that involves no detectable reaction intermediates. Initial and final spectra are analyzed to confirm the identity of the thiolatocobalamin product (FIG. 5 b). Time courses were generated at the absorption maxima of each species (350 nm, H2OCbl^+, and 372 nm, MPGCbl) (FIG. 5 c).

human wild type CblC = biological target: T1, human wild type CblC (Homo sapiens, UniProt Q9Y4U1); assay: Binding to CblC and conversion to base-off configuration (UV-visible spectrophotometry); conditions: pH 7.6, EPPS buffer 0.04 M
T1 sequence (Q9Y4U1 1-282): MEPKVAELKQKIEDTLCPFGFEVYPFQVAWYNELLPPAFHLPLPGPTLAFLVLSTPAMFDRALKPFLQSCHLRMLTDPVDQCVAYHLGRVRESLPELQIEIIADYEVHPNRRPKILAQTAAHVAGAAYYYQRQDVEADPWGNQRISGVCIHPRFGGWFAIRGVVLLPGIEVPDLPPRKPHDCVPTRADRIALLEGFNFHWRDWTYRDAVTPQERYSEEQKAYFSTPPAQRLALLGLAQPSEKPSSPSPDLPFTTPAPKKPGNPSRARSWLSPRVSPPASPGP
Experimental: An important aspect for the bioactivity of the new compounds is their ability to bind to the processing enzyme CblC, and to undergo conversion to the base-off configuration, which enhances their reactivity. This is a critical step in all intracellular pathways of vitamin B12 metabolism that are involved in pathogenesis, and certainly, relevant to the cblC disease itself. […] Binding studies were conducted at pH 7.6 (EPPS buffer, 0.04 M) and analyzed by UV-visible spectrophotometry.

[3] = biological target: T2, human recombinant CblC wild type (Homo sapiens, UniProt Q9Y4U1); assay type: biochemical; conditions: for Half-life of beta-axial ligand removal, Wild type CblC: human, pH 7.6
T2 sequence (Q9Y4U1 1-282): T1 sequence (Q9Y4U1 1-282)
Experimental: (§1) The ability of the newly synthesized Cbl derivatives to serve as substrates for CblC was examined (FIG. 12). CblC activity was measured by UV-visible spectroscopy according to published procedures. Analysis of reaction products was performed by mass spectrometry. We measured dealkylation and de-thiolation of Co—C and Co—S bonded Cbl derivatives, respectively, by wild type and mutant CblC proteins to determine whether these reactions could be supported in patients harboring an abnormal isoform of CblC with low or no enzymatic activity.
The enzymatic activity of CblC in the presence of CyaCbl and MPGCbl as substrates was evaluated under the same experimental conditions utilized to examine dealkylation of MeCbl and AdoCbl. […] The reaction was complete in less than 10 seconds, which is the time it takes to record the first spectrum after mixing of CblC-bound to CyaCbl or MPGCbl with 5 mM GSH (FIG. 12).
(§2) First, the ability of novel cobalamins described herein was tested to act as substrate for wild type CblC and to restore the lost activity of pathogenic variants, such as mutant Arg161Gly, that leads to early-onset form of the cblC disease.

[4] = biological target: T3, human recombinant CblC pathogenic mutant Arg161Gly (Homo sapiens, UniProt Q9Y4U1, R161G); assay type: biochemical; conditions: for Product under ambient conditions, Mutant Arg161Gly: dethiolation, 50 μM GSH; for Half-life of beta-axial ligand removal, Mutant Arg161Gly: human, pH 7.6
T3 sequence (Q9Y4U1 1-282 R161G): T1 sequence (Q9Y4U1 1-282) with R161G
Experimental: as §1, §2

[5] = system: fibroblasts from healthy subjects; assay: MMA in conditioned medium of control fibroblasts; assay type: cell-based, human
From the text: (§3) Cultured cells from control (healthy neonatal subjects) or cblC fibroblasts were supplemented without exogenous Cbl (negative control), with commercial CNCbl (current therapy control) or with the newly synthesized cobalamins (test group). The ability of these compounds to support intracellular Cbl metabolism in the absence of CblC was examined by monitoring disease biomarker metabolites Hcy and MMA levels in the conditioned medium.
(§4) The cellular response to treatment with new derivatives CyaCbl and MPGCbl in comparison with current therapeutic form CNCbl was measured. The ability of the new cobalamin derivatives CyaCbl and MPGCbl to achieve metabolic control, i.e. reduction of for example MMA production by cblC fibroblasts in culture, was examined as described in previously published experimental protocols. FIG. 13 provides a comparison of the effect of CNCbl (0.001 mM) versus the same dose of CyaCbl or MPGCbl given to cultured fibroblasts from healthy subjects (HFF, NHDF, PCS, Wiesel, Control) or from cblC patients (WG1801, WG2176, WG3354, GM10011, GM02345B, GM02452C).
(§5) Additional examination of the effect of thiolatocobalamins CyaCbl and MPGCbl and sulfur-containing alkylcobalamin Me-S-MeCbl with respect to structural analogues that are NOT available for therapy was also carried out, for comparative purposes. The results of cellular response (healthy controls and cblC patient fibroblasts) to cobalamin treatment, as reflected by MMA levels is provided in Table 6.

[6] = system: fibroblasts isolated from patients with cblC disease; assay: MMA in conditioned medium of cblC patient fibroblasts; assay type: cell-based, human
From the text: as §3, §4, §5

cultured fibroblasts = assay: Cytotoxicity and cellular transport observed in cultured fibroblast experiments; assay type: cell-based, human
[7] = biological target: T2, human recombinant CblC wild type; assay type: biochemical; conditions: dethiolation; 50 μM GSH
[8] = Controls (group value), after 7 days
[9] = Controls, after 7 days wash-off period without supplemental cobalamin
[10] = HFF control fibroblasts, after 7 days
[11] = NHDF control fibroblasts, after 7 days
[12] = Wiezel control fibroblasts, after 7 days
[13] = GM02345B cblC fibroblasts, after 7 days
[14] = GM02452C cblC fibroblasts, after 7 days
[15] = GM10011 cblC fibroblasts, after 7 days
[16] = WG1801 cblC fibroblasts, after 7 days
[17] = WG2176 cblC fibroblasts, after 7 days
[18] = WG3354 cblC fibroblasts, after 7 days
[19] = cblC patients (group value), after 7 days
[20] = cblC patients, after 7 days wash-off period without supplemental cobalamin

| SMILES | K, concentration-dependent reaction rate (formation from aquacobalamin) [1] [M⁻¹ s⁻¹] | K, concentration-dependent reaction rate (formation from aquacobalamin) [2] [M⁻¹ s⁻¹] | Half-life of beta-axial ligand removal, Wild type CblC [3] [min] | Product under ambient conditions, Mutant Arg161Gly [4] | Half-life of beta-axial ligand removal, Mutant Arg161Gly [4] [min] | MMA in conditioned medium [5, 8] [μmol/mg protein] | MMA in conditioned medium [5, 9] [μmol/mg protein] | MMA in conditioned medium [5, 10] [μmol/mg protein] | MMA in conditioned medium [5, 11] [μmol/mg protein] | MMA in conditioned medium [5, 12] [μmol/mg protein] | MMA in conditioned medium [6, 13] [μmol/mg protein] | MMA in conditioned medium [6, 14] [μmol/mg protein] | MMA in conditioned medium [6, 15] [μmol/mg protein] | MMA in conditioned medium [6, 16] [μmol/mg protein] | MMA in conditioned medium [6, 17] [μmol/mg protein] | MMA in conditioned medium [6, 18] [μmol/mg protein] | MMA in conditioned medium [6, 19] [μmol/mg protein] | MMA in conditioned medium [6, 20] [μmol/mg protein] | Product under ambient conditions, Wild type CblC [7] | also measured |
| --- | --- | --- | --- | --- | --- | --- | --- | --- | --- | --- | --- | --- | --- | --- | --- | --- | --- | --- | --- | --- |
| CC(C[S][Co+2])C(=O)N1CCCC1C(=O)O.CC1=C2N=C(C=C3N=C(C(C)=C4[N-]C(C(CC(N)=O)C4(C)CCC(=O)NCC(C)OP(=O)([O-])OC4C(CO)OC(n5cnc6cc(C)c(C)cc65)C4O)C4(C)N=C1C(CCC(N)=O)C4(C)CC(N)=O)C(CCC(N)=O)C3(C)C)C(CCC(N)=O)C2(C)CC(N)=O (centres unmarked) [CaptoprilCbl] | 24.7 |  |  |  |  |  |  |  |  |  |  |  |  |  |  |  |  |  |  |  |
| CC1=C2N=C(C=C3N=C(C(C)=C4[N-]C(C(CC(N)=O)C4(C)CCC(=O)NCC(C)OP(=O)([O-])OC4C(CO)OC(n5cnc6cc(C)c(C)cc65)C4O)C4(C)N=C1C(CCC(N)=O)C4(C)CC(N)=O)C(CCC(N)=O)C3(C)C)C(CCC(N)=O)C2(C)CC(N)=O.NCC[S][Co+2] (centres unmarked) [CyaCbl] |  | 28.66 | <0.5 | H2OCbl | 2.1 | 0.141 | 0.154 | 0.095 | 0.184 | 0.144 | 0.217 | 0.369 | 0.208 | 0.194 | 0.189 | 0.114 | 0.215 | 0.190 | H2OCbl | Effect of binding to human wild type CblC on configuration (human wild type CblC): induces their base-off configuration; Product of the reaction ([3]; cobalamin bound to human CblC, in the presence of GSH): H2OCbl^+; Reduction of MMA to the levels of healthy fibroblasts, compared with CNCbl ([6]; 0.001 mM, same dose as CNCbl, FIG. 13): far superior compared to CNCbl; Transport into the cells (cultured fibroblasts; canonical TC transporter and its cellular receptor CD320): transported successfully into the cells; Cytotoxicity (cultured fibroblasts; under the experimental conditions of the fibroblast cultures): not cytotoxic |
| C/C1=C2N=C(/C=C3N=C(/C(C)=C4\[N-]C(C(CC(N)=O)C4(C)CCC(=O)NCC(C)OP(=O)([O-])OC4C(CO)OC(n5cnc6cc(C)c(C)cc65)C4O)C4(C)N=C1C(CCC(N)=O)C4(C)CC(N)=O)C(CCC(N)=O)C\3(C)C)C(CCC(N)=O)C/2(C)CC(N)=O.NC(CCC(=O)NC(C[S-])C(=O)NCC(=O)O)C(=O)O.[Co+3] (centres unmarked) [GSCbl, glutathionylcobalamin, reference compound] | 18.09 | 20.74 | 2.5 | H2OCbl | 9.8 | 0.106 | 0.134 | 0.105 | 0.078 | 0.135 | 0.223 | 0.167 | 0.052 | 0.198 | 0.316 | 0.269 | 0.204 | 0.275 | H2OCbl | Fold less proficient support of the CblC reaction than MPGCbl and CyaCbl ([3]; wild type and pathogenic variant Arg161Gly): 4-5 fold |
